Key:
Experiment in all cases: Test D controlled growth environment herbicide test, pre- and postemergence
Type in all cases: in vivo
[1] = test system: bromegrass, downy (downy bromegrass, Bromus tectorum)
Method in brief: (§1)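 Pre-emergence: seeds sown in silt loam soil were sprayed with compound in a non-phytotoxic solvent mix containing surfactant. Post-emergence: plants at 2 to 18 cm (1- to 4-leaf stage) in peat moss/vermiculite medium got the same formulation. Visual 0–100 rating versus controls after 14 to 21 d.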

[2] = test system: bluegrass (annual bluegrass, Poa annua)
Method in brief: as §1

[3] = test system: lambsquarters (Chenopodium album)
Method in brief: as §1

[4] = test system: wheat, spring (spring wheat, Triticum aestivum)
Method in brief: as §1

[5] = test system: buckwheat, wild (wild buckwheat, Polygonum convolvulus)
Method in brief: as §1

[6] = test system: barley, winter (winter barley, Hordeum vulgare)
Method in brief: as §1

[7] = test system: windgrass (Apera spica-venti)
Method in brief: as §1

[8] = test system: galium (catchweed bedstraw, Galium aparine)
Method in brief: as §1

[9] = test system: canarygrass (Phalaris minor)
Method in brief: as §1

[10] = test system: pigweed (Amaranthus retroflexus)
Method in brief: as §1

[11] = test system: blackgrass (Alopecurus myosuroides)
Method in brief: as §1

[12] = test system: foxtail, green (green foxtail, Setaria viridis)
Method in brief: as §1

[13] = test system: ryegrass, Italian (Italian ryegrass, Lolium multiflorum)
Method in brief: as §1

[14] = Postemergence, 31 g ai/ha, scale 0 to 100 (0 no effect, 100 complete control)
[15] = Postemergence, 125 g ai/ha, visual rating on scale 0 (no effect) to 100 (complete control), 14 to 21 d
[16] = Postemergence, 250 g ai/ha, scale 0 to 100 (0 no effect, 100 complete control)
[17] = Preemergence, 62 g ai/ha, scale 0 to 100 (0 no effect, 100 complete control)
[18] = Preemergence, 125 g ai/ha, scale 0 to 100 (0 no effect, 100 complete control)
[19] = Preemergence, 250 g ai/ha, scale 0 to 100, 0 no effect, 100 complete control
[20] = postemergence, 62 g ai/ha, scale 0 to 100, 0 no effect, 100 complete control

Cc1ccc2sc(C)c(-c3c(OC(=O)OC(C)C)c(C)nn(C)c3=O)c2c1 [Compound 66]
100: Plant response rating, Lambsquarters [3, 15] | Plant response rating, Lambsquarters [3, 16] | Plant response rating, Lambsquarters [3, 17] | Plant response rating, Lambsquarters [3, 18] | Plant response rating, Lambsquarters [3, 19] | Plant response rating, Buckwheat, Wild [5, 15] | Plant response rating, Buckwheat, Wild [5, 16] | Plant response rating, Buckwheat, Wild [5, 20] | Plant response rating, Windgrass [7, 16] | Plant response rating, Galium [8, 15] | Plant response rating, Galium [8, 16] | Plant response rating, Galium [8, 20] | Plant response rating, Pigweed [10, 15] | Plant response rating, Pigweed [10, 16] | Plant response rating, Pigweed [10, 17] | Plant response rating, Pigweed [10, 18] | Plant response rating, Pigweed [10, 19] | Plant response rating, Pigweed [10, 20]
30: Plant response rating, Bluegrass [2, 15] | Plant response rating, Bluegrass [2, 19] | Plant response rating (scale of 0 to 100), Pigweed ([10]; Preemergence, 31 g ai/ha)
98: Plant response rating, Foxtail, Green [12, 16] | Plant response rating, Ryegrass, Italian [13, 16]
70: Plant response rating, Bromegrass, Downy [1, 16] | Plant response rating (scale of 0 to 100), Windgrass ([7]; Preemergence, 31 g ai/ha) | Plant response rating, Canarygrass [9, 15] | Plant response rating, Blackgrass [11, 17] | Plant response rating, Blackgrass [11, 20] | Plant response rating, Foxtail, Green [12, 19]
60: Plant response rating, Bromegrass, Downy [1, 17] | Plant response rating, Bromegrass, Downy [1, 20]
0: Bluegrass plant response rating [2, 14] | Wheat, Spring plant response rating [4, 14] | Plant response rating, Wheat, Spring [4, 15] | Plant response rating (scale of 0 to 100), Wheat, Spring ([4]; Preemergence, 31 g ai/ha) | Plant response rating, Wheat, Spring [4, 17] | Plant response rating, Wheat, Spring [4, 20] | Plant response rating (scale of 0 to 100), Buckwheat, Wild ([5]; Preemergence, 31 g ai/ha) | Plant response rating, Buckwheat, Wild [5, 17] | Plant response rating, Buckwheat, Wild [5, 18] | Plant response rating, Buckwheat, Wild [5, 19] | Barley, Winter plant response rating [6, 14] | Plant response rating, Barley, Winter [6, 15] | Plant response rating (scale of 0 to 100), Barley, Winter ([6]; Preemergence, 31 g ai/ha) | Plant response rating, Barley, Winter [6, 17] | Plant response rating, Barley, Winter [6, 18] | Plant response rating, Barley, Winter [6, 20] | Plant response rating (scale of 0 to 100), Galium ([8]; Preemergence, 31 g ai/ha)
5: Plant response rating, Wheat, Spring [4, 16] | Plant response rating, Wheat, Spring [4, 18] | Plant response rating, Barley, Winter [6, 16]
20: Plant response rating, Wheat, Spring [4, 19] | Plant response rating, Galium [8, 17]
50: Bromegrass, Downy plant response rating [1, 14]
65: Plant response rating, Bromegrass, Downy [1, 15] | Plant response rating, Galium [8, 18] | Plant response rating, Canarygrass [9, 20] | Blackgrass plant response rating [11, 14] | Plant response rating, Foxtail, Green [12, 18]
75: Windgrass plant response rating [7, 14] | Plant response rating, Windgrass [7, 17] | Plant response rating, Galium [8, 19] | Plant response rating, Blackgrass [11, 15] | Plant response rating, Blackgrass [11, 16] | Plant response rating, Blackgrass [11, 18] | Foxtail, Green plant response rating [12, 14]
55: Plant response rating (scale of 0 to 100), Lambsquarters ([3]; Preemergence, 31 g ai/ha) | Canarygrass plant response rating [9, 14]
95: Lambsquarters plant response rating [3, 14] | Plant response rating, Lambsquarters [3, 20] | Buckwheat, Wild plant response rating [5, 14] | Plant response rating, Canarygrass [9, 19] | Pigweed plant response rating [10, 14] | Plant response rating, Ryegrass, Italian [13, 15] | Plant response rating, Ryegrass, Italian [13, 19] | Plant response rating, Ryegrass, Italian [13, 20]
25: Plant response rating, Bluegrass [2, 18] | Plant response rating, Bluegrass [2, 20] | Plant response rating (scale of 0 to 100), Canarygrass ([9]; Preemergence, 31 g ai/ha) | Plant response rating (scale of 0 to 100), Blackgrass ([11]; Preemergence, 31 g ai/ha)
35: Plant response rating, Bluegrass [2, 16] | Plant response rating, Foxtail, Green [12, 17]
80: Plant response rating, Bromegrass, Downy [1, 18] | Plant response rating, Windgrass [7, 20] | Plant response rating, Canarygrass [9, 17] | Plant response rating, Blackgrass [11, 19] | Plant response rating, Foxtail, Green [12, 20] | Plant response rating (scale of 0 to 100), Ryegrass, Italian ([13]; Preemergence, 31 g ai/ha)
90: Plant response rating, Foxtail, Green [12, 15] | Plant response rating, Ryegrass, Italian [13, 18]
10: Plant response rating (scale of 0 to 100), Bluegrass ([2]; Preemergence, 31 g ai/ha) | Plant response rating, Barley, Winter [6, 19]
15: Plant response rating (scale of 0 to 100), Bromegrass, Downy ([1]; Preemergence, 31 g ai/ha) | Plant response rating, Bluegrass [2, 17] | Plant response rating (scale of 0 to 100), Foxtail, Green ([12]; Preemergence, 31 g ai/ha)
85: Plant response rating, Bromegrass, Downy [1, 19] | Plant response rating, Windgrass [7, 15] | Plant response rating, Windgrass [7, 18] | Plant response rating, Windgrass [7, 19] | Galium plant response rating [8, 14] | Plant response rating, Canarygrass [9, 16] | Plant response rating, Canarygrass [9, 18] | Ryegrass, Italian plant response rating [13, 14] | Plant response rating, Ryegrass, Italian [13, 17]

Reference: patent US10597388B2, “Pyridazinone herbicides” (FMC CORPORATION, priority 2014, dated 2020)
